According to patent US12590062B2, “PD-1/PD-L1 inhibitors” (Gilead Sciences, Inc., priority 2017, dated 2026):

Experiments:
PD-L1 = molecular target: T1, PD-L1 (Homo sapiens, UniProt Q9NZQ7); assay: PD-L1/PD-L1 dimerization biochemical protein-protein interaction assay (ALPHA); format: binding; details: compound-induced PD-L1 dimerization, head prints '1 nM' (0.5 nM His-tagged PD-L1 and 0.5 nM FLAG-tagged PD-L1), read-out: AC50 PDL1 Dimer Alpha 1 nM
T1 construct: determine if they can specifically dimerize the extracellular domains of PD-L1
In short: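 ALPHA proximity assay of compound-induced dimerization of 0.5 nM His-tagged and 0.5 nM FLAG-tagged PD-L1 extracellular domains in Hepes pH 7.4 buffer, 2 h at 25 °C. Anti-His acceptor then anti-FLAG donor beads, 60 min each; AC50 from four-parameter fit.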

PD-1/PD-L1 = PD-1/PD-L1 (Homo sapiens, UniProt Q9NZQ7); assay: PD-1/PD-L1 biochemical protein-protein interaction assay (ALPHA); format: binding; details: 0.3 nM His tagged PD-L1, 2.5 nM biotinylated Fc-PD-1, 60 minutes at 25° C., read-out: IC50 PD-L1-PD-1 Alpha IC50-mono PD-L1-fcP-D1
In short: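 Compounds are tested for blocking the PD-1/PD-L1 extracellular-domain interaction using an ALPHA bead assay, in which inhibition lowers the luminescent signal. Reactions run 60 min at 25° C with 0.3 nM His-PD-L1 and 2.5 nM biotinylated Fc-PD-1. IC50 values come from four-parameter fits.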

PD-1/PD-L1 interaction = molecular target: T2, PD-1/PD-L1 interaction (Homo sapiens, UniProt Q9NZQ7); assay: PD-1/PD-L1 NFAT reporter co-culture assay; format: cell-based; details: Jurkat PD-1 NFAT-luciferase cells co-cultured with aAPC-PD-L1 CHO cells, 6 hrs at 37° C.; read-out: EC50 NFAT Luciferase
T2 construct: expressed in transfected cells; host or cells: CHO cells (aAPC-PD-L1) co-cultured with Jurkat cells overexpressing PD-1 and an NFAT-luciferase reporter
In short: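 Jurkat cells overexpressing PD-1 with NFAT-luciferase mixed with compounds and plated onto CHO aAPCs expressing anti-CD3 and PD-L1, RPMI with 2% FBS. Co-culture 6 h at 37 °C; luminescence read with ONE-Glo. EC50 from four-parameter fit.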

T1 sequence (Q9NZQ7 19-238 limits assumed): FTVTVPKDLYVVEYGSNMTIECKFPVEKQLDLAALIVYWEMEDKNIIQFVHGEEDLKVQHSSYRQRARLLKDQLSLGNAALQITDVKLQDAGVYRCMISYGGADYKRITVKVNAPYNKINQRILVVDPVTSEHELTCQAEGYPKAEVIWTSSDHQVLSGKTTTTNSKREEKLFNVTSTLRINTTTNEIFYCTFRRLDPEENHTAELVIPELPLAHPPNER
T1 sequence (Q9NZQ7 19-238 limits assumed): as above
Chain of PD-1/PD-L1 (Q9NZQ7 19-238 limits assumed): as above
T2 sequence (Q9NZQ7 19-290): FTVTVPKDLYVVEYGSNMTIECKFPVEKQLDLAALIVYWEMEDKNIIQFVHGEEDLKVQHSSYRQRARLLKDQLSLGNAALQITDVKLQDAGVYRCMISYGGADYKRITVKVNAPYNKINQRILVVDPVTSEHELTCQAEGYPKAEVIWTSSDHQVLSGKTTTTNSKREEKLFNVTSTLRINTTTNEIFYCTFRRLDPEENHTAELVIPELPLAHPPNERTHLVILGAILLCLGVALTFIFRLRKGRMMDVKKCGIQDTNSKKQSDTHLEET

Row | Compound | AC50 (PD-L1) [nM] | IC50 (PD-1/PD-L1) [nM] | EC50 (PD-1/PD-L1 interaction) [nM]
1 | Cc1c(COc2cc(OCc3cncc(C#N)c3)c(CNC[C@@H](O)CC(=O)O)cc2Cl)cccc1-c1cccc(-c2ccc(O[C@H]3CCCN(CCO)C3)cc2)c1C [Example 354, (S)-4-((5-chloro-2-((5-cyanopyridin-3-yl)methoxy)-4-((4″-(((S)-1-(2-hydroxyethyl)piperidin-3-yl)oxy)-2,2′-dimethyl-[1,1′:3′,1″-terphenyl]-3-yl)methoxy)benzyl)amino)-3-hydroxybutanoic acid] | 342 | 0.241 | 1880
2 | N#Cc1cncc(COc2nc(O[C@H]3CCc4c(-c5cccc(-c6nc7ccc(CNC[C@@H](O)CC(=O)O)cn7n6)c5Cl)cccc43)c(Cl)cc2CNC[C@@H](O)CC(=O)O)c1 [Example 803] | 11.7 | 0.064 | 49
3 | COc1cc(-c2cccc(-c3cccc(-c4ccc(CNC[C@@H](O)CC(=O)O)c(OC)c4)c3C)c2C)ccc1CNC[C@@H](O)CC(=O)O [Example 317, (3S,3′S)-4,4′-(((3,3′″-dimethoxy-2′,2″-dimethyl-[1,1′:3′,1″:3″,1′″-quaterphenyl]-4,4′″-diyl)bis(methylene))bis(azanediyl))bis(3-hydroxybutanoic acid)] | 1180 | 0.577 | 1100
4 | CS(=O)(=O)c1cncc(COc2nc(O[C@H]3CCc4c(-c5cccc(-c6ccc(OCCNCCO)cc6)c5Cl)cccc43)c(Cl)cc2CNC[C@@H](O)CC(=O)O)c1 [Example 637, (S)-4-(((5-chloro-6-(((S)-4-(2-chloro-4′-(2-((2-hydroxyethyl)amino)ethoxy)-[1,1′-biphenyl]-3-yl)-2,3-dihydro-1H-inden-1-yl)oxy)-2-((5-(methylsulfonyl)pyridin-3-yl)methoxy)pyridin-3-yl)methyl)amino)-3-hydroxybutanoic acid] | 20.8 | 0.064 | 90
5 | Cc1c(COc2cc(OCc3cncc(C#N)c3)c(CN[C@@](C)(CO)C(=O)O)cc2Cl)cccc1-c1cccc(-c2ccc3c(c2)ncc(=O)n3CCN(C)C)c1C [Example 469] | 73.5 | 0.064 | 125
6 | Cc1c(COc2cc(OCc3cncc(C#N)c3)c(CNC[C@@H](O)CC(=O)O)cc2Cl)cccc1-c1cccc(-c2ccc(OCCNC[C@@H](O)CC(=O)O)cc2)c1Cl [Example 341, (S)-4-((4-((4″-(2-(((S)-3-carboxy-2-hydroxypropyl)amino)ethoxy)-2′-chloro-2-methyl-[1,1′:3′,1″-terphenyl]-3-yl)methoxy)-5-chloro-2-((5-cyanopyridin-3-yl)methoxy)benzyl)amino)-3-hydroxybutanoic acid] | 38.3 | 0.064 | 284
7 | COc1cc(-c2cccc(-c3cccc(COc4cc(OCc5cncc(C#N)c5)c(CNC[C@@H](O)CC(=O)O)cc4Cl)c3C)c2C)ccc1C1=NCCN1 [Example 502] | 85.2 | 0.081 | 100
8 | N#Cc1cncc(COc2nc(OCc3cccc(-c4cccc(-c5ccc(OCCNCCO)cc5)c4Cl)c3Cl)c(Cl)cc2CNC[C@@H](O)CC(=O)O)c1 [Example 561] | 193 | 0.531 | 146
9 | COc1nc(-c2cccc(-c3cccc(COc4cc(OCc5cncc(C#N)c5)c(CN[C@@](C)(CO)C(=O)O)cc4Cl)c3C)c2C)ccc1C1=NCCN1 [Example 504] | 47.8 | 0.064 | 68
10 | Cc1c(COc2cc(OCc3cncc(C#N)c3)c(CN[C@@](C)(CO)C(=O)O)cc2Cl)cccc1-c1cccc(-c2ccc(OCCNC[C@H]3CCC(=O)N3)cc2)c1C [Example 518] | 96.1 | 0.064 | 159
11 | CS(=O)(=O)c1cncc(COc2nc(OCc3cccc(-c4cccc(-c5ccc6c(c5)C[C@@H](N)C6)c4Cl)c3Cl)c(Br)cc2CNC[C@@H](O)CC(=O)O)c1 [Example 546] | 39.2 | 0.515 | 109
12 | COc1nc(-c2cccc(-c3cccc(-c4ccc5c(CNC[C@@H]6CCC(=O)N6)cccc5c4)c3Cl)c2Cl)ccc1CNC[C@@H]1CCC(=O)N1 [Example 604] | 935 | 4.87 | 552
13 | Cc1c(COc2cc(OCc3cncc(C#N)c3)c(CNCCO)cc2Cl)cccc1-c1cccc(-c2ccc(C3CCCN3)cc2)c1C (stereo not drawn) [Example 379, 5-((4-chloro-5-((2,2′-dimethyl-4″-(pyrrolidin-2-yl)-[1,1′:3′,1″-terphenyl]-3-yl)methoxy)-2-(((2-hydroxyethyl)amino)methyl)phenoxy)methyl)nicotinonitrile] | 153 | 2.38 | 415
14 | Cc1c(COc2cc(OCc3cncc(C#N)c3)c(CN[C@@](C)(CO)C(=O)O)cc2Cl)cccc1-c1cccc(-c2ccc(C3=NCCN3)cc2)c1C [Example 503] | 42.1 | 0.064 | 81
15 | COc1nc(-c2cccc(-c3cccc(COc4nc(OC)c(CNC[C@@H](O)CC(=O)O)cc4Cl)c3Cl)c2Cl)ccc1CNC[C@@H]1CCC(=O)N1 [Example 590] | 134 | 0.186 | 140
16 | C[C@@](CO)(NCc1cc(Cl)c(O[C@H]2CCc3c(-c4cccc(-c5ccc(S(N)(=O)=O)cc5)c4Cl)cccc32)nc1OCc1cncc(C#N)c1)C(=O)O [Example 671] | ≥ 10000 | 0.159 | 235

Continued, values first:

Row | AC50 (PD-L1) [nM] | IC50 (PD-1/PD-L1) [nM] | EC50 (PD-1/PD-L1 interaction) [nM] | Compound
17 | 69.9 | 0.064 | 46 | COc1nc(O[C@H]2CCc3c(-c4cccc(-c5cnc6c(CN7CC8(CNC(=O)C8)C7)cn(C)c6n5)c4Cl)cccc32)c(Cl)cc1CN1CC(C(=O)O)C1 [Example 527]
18 | 33 | 0.064 | 12 | COc1nc(-c2cccc(-c3cccc4c3CC[C@@H]4Oc3nc(OC)c(CN4CC[C@H](C(=O)O)C4)cc3Cl)c2Cl)ccc1CNC[C@H]1C[C@H](O)C1 [Example 712]
19 | 37.7 | 0.29 | 24 | COc1nc(O[C@H]2CCc3c(-c4cccc(-c5ccc(CNC[C@@H]6CCC(=O)N6)c(OCC#N)n5)c4Cl)cccc32)c(Cl)cc1CNC[C@@H]1CCC(=O)N1 [Example 656]
20 | 105 | 0.17 | 93 | N#CCOc1cc(-c2cccc(-c3cccc4c3CC[C@@H]4Oc3nc(OCC#N)c(CNC[C@@H]4CCC(=O)N4)cc3Cl)c2Cl)ccc1CNC[C@@H]1CCC(=O)N1 [Example 653]
21 | 94.9 | 0.262 | 558 | COc1nc(O[C@H]2CCc3c(-c4cccc(-c5ccc(CNC[C@@H]6CCC(=O)N6)cc5)c4Cl)cccc32)c(Cl)cc1CN1CC(O)C1 [Example 720]
22 | ≥ 10000 | 0.638 | 2100 | COc1nc(O[C@H]2CCc3c(-c4cccc(-c5ccc(CN6CC7(CCC(=O)N7)C6)cc5)c4Cl)cccc32)c(Cl)cc1CN1CC2(CCC(=O)N2)C1 [Example 773]
23 | 113 | 0.353 | 68 | COc1nc(O[C@H]2CCc3c(-c4cccc(-c5ccc(C6=NCCN6)c(OC)n5)c4Cl)cccc32)c(Br)cc1CNC[C@@H]1CCC(=O)N1 [Example 779]
24 | 19 | 0.064 | 14 | COc1nc(O[C@H]2CCc3c(-c4cccc(-c5ccc(CNC[C@@H]6CCC(=O)N6)cc5)c4Cl)cccc32)c(Cl)cc1CN1CC(C(=O)O)C1 [Example 721]
25 | 700 | 0.418 | 856 | CCOC(=O)[C@@H]1CCN(Cc2cc(Cl)c(O[C@H]3CCc4c(-c5cccc(-c6ccc(CN7CC8(C7)CN(C(C)=O)C8)cc6)c5Cl)cccc43)nc2OC)C1 [Example 770]
26 | 10.9 | 0.09 | 27 | COc1nc(O[C@H]2CCc3c(-c4cccc(-c5ccc(CNC[C@@H]6CCC(=O)N6)c(OCC#N)c5)c4Cl)cccc32)c(Cl)cc1CNC[C@@H](O)CC(=O)O [Example 654]
27 | 228 | 0.762 | 151 | COc1cc(O[C@H]2CCc3c(-c4cccc(-c5ccc(CN6CC7(CCC(=O)N7)C6)c(OC)n5)c4Cl)cccc32)c(Cl)cc1CNC[C@@H]1CCC(=O)N1 [Example 796]
28 | 19.8 | 0.064 | 21 | COc1nc(O[C@H]2CCc3c(-c4cccc(-c5cc(C)c(CNC[C@@H]6CCC(=O)N6)c(OC)n5)c4Cl)cccc32)c(Cl)cc1CN1CC[C@H](C(=O)O)C1 [Example 491]
29 | 38.8 | 0.064 | 29 | COc1nc(O[C@H]2CCc3c(-c4cccc(-c5cnc(CNC[C@@H]6CCC(=O)N6)c(OC)n5)c4Cl)cccc32)c(Cl)cc1CN[C@@](C)(CO)C(=O)O [Example 649]
30 | 7.89 | 0.064 | 35 | COc1nc(O[C@H]2CCc3c(-c4cccc(-c5ccc(CNC[C@@H]6CCC(=O)N6)cc5)c4Cl)cccc32)c(Cl)cc1CN1CCCC[C@H]1C(=O)O [Example 715]
